Reference: patent publication US20260035384A1, “COMPOUND CONTAINING CYCLOHEXYL” (CHIA TAI TIANQING PHARMACEUTICAL GROUP CO., LTD., priority 2022, published 2026)

Tests used:
[1] = tested on: VCaP cells; assay: Assay on inhibitory activity for VCaP cell proliferation (CCK-8); format: cell-based; conditions: 168 h incubation
Method: (§1) 2.1 Assay on inhibitory activity for VCaP cell proliferation VCaP cells in a good growth state were taken, washed with PBS, digested with pancreatin, and added with 5% CSS—FBS phenol red-free DMEM complete medium to terminate the digestion. The cells were collected by using a centrifuge tube, adjusted to a cell density of 1×10^5 cells/mL, and seeded in a 96-well plate (100 μL/well). Meanwhile, compounds were added using a nanoliter pipettor such that the final concentrations of the compounds were 10000 nM-0.61 nM. Two duplicate wells were set for each concentration, and meanwhile, a control was set. After another 168 h of incubation in the cell incubator, the detection reagent CCK-8 (manufacturer: Dojindo, 10 μL/well) was added.

[2] = tested on: LNCaP cells; assay: Assay on inhibitory activity for LNCaP cell proliferation (CCK-8); format: cell-based; conditions: 168 h incubation
Method: as §1, with “LNCaP” for “2.1 Assay on inhibitory activity for VCaP cell proliferation VCaP”, “2%” for “5%”, “1640” for “DMEM”

Row | IC50 ([1]; Homo sapiens, VCaP, 168 h) | IC50 ([2]; Homo sapiens) | Compound | further results
1 | < 1000 nM | – | N#Cc1ccc(O[C@H]2CC[C@H](NC(=O)c3cnc(C4CCN(CC5Cc6ccc7c(C8CCC(=O)NC8=O)noc7c6C5)CC4)nc3)CC2)cc1Cl (stereo partly drawn) [Compound 125] | –
2 | < 10 nM | < 1000 nM | N#Cc1ccc(O[C@H]2CC[C@H](NC(=O)c3ccc(N4CCC(N5CC(CN6CCc7ccc8c(C9CCC(=O)NC9=O)noc8c7CC6)C5)CC4)nn3)CC2)cc1Cl (stereo partly drawn) [Compound 93] | –
3 | – | < 1000 nM | N#Cc1ccc(O[C@H]2CC[C@H](NC(=O)c3cnc(C4CCN(C5CN(CC6Cc7ccc8c(C9CCC(=O)NC9=O)coc8c7C6)C5)CC4)nc3)CC2)cc1Cl (stereo partly drawn) [Compound 111] | IC50 [1]: < 100 nM
4 | < 100 nM | – | N#Cc1ccc(O[C@H]2CC[C@H](NC(=O)c3cnc(N4CCC(N5CC(CN6CCc7ccc8c(C9CCC(=O)NC9=O)coc8c7CC6)C5)CC4)nc3)CC2)cc1Cl (stereo partly drawn) [Compound 106] | –
5 | < 10 nM | < 1000 nM | N#Cc1ccc(O[C@H]2CC[C@H](NC(=O)c3cnc(N4CCC(CN5CCc6c(ccc7c(C8CCC(=O)NC8=O)noc67)C5)CC4)nc3)CC2)cc1Cl (stereo partly drawn) [Compound 121] | –
6 | < 100 nM | < 1000 nM | N#Cc1ccc(O[C@H]2CC[C@H](NC(=O)c3ccc(N4CCN(CC5Cc6ccc7c(C8CCC(=O)NC8=O)coc7c6C5)CC4)nn3)CC2)cc1Cl (stereo partly drawn) [Compound 28] | –
7 | < 10 nM | – | N#Cc1ccc(O[C@H]2CC[C@H](NC(=O)c3ccc(N4CCC(N5CC(CN6Cc7cc8onc(C9CCC(=O)NC9=O)c8cc7C6)C5)CC4)nn3)CC2)cc1Cl (stereo partly drawn) [Compound 101] | –
8 | < 1000 nM | < 1000 nM | N#Cc1ccc(O[C@H]2CC[C@H](NC(=O)c3cnc(N4CCC(CN5Cc6ccc7c(C8CCC(=O)NC8=O)coc7c6C5)CC4)nc3)CC2)cc1Cl (stereo partly drawn) [Compound 132] | –
9 | < 100 nM | – | N#Cc1ccc(O[C@H]2CC[C@H](NC(=O)c3cnc(C4=CCN(CC5Cc6ccc7c(C8CCC(=O)NC8=O)noc7c6C5)CC4)nc3)CC2)cc1Cl (stereo partly drawn) [Compound 127] | –
10 | < 100 nM | < 1000 nM | N#Cc1ccc(O[C@H]2CC[C@H](NC(=O)c3cnc(N4CCC5(CC4)CC(CN4CCc6ccc7c(C8CCC(=O)NC8=O)noc7c6CC4)C5)nc3)CC2)cc1Cl (stereo partly drawn) [Compound 131] | –
11 | < 10 nM | – | N#Cc1ccc(O[C@H]2CC[C@H](NC(=O)c3ccc(N4CCC(CN5CC(n6ncc7c8c(C9CCC(=O)NC9=O)noc8ccc76)C5)CC4)nn3)CC2)cc1Cl (stereo partly drawn) [Compound 42] | –
12 | < 10 nM | – | N#Cc1ccc(O[C@H]2CC[C@H](NC(=O)c3cnc(N4CCC(N5CC(CN6Cc7ccc8c(C9CCC(=O)NC9=O)coc8c7C6)C5)CC4)nc3)CC2)cc1Cl (stereo partly drawn) [Compound 103] | –
13 | – | < 1000 nM | N#Cc1ccc(O[C@H]2CC[C@H](NC(=O)c3ccc(N4CCC(N5CC(n6ncc7c8c(C9CCC(=O)NC9=O)noc8ccc76)C5)CC4)nn3)CC2)cc1Cl (stereo partly drawn) [Compound 43] | –
14 | – | < 1000 nM | N#Cc1ccc(O[C@H]2CC[C@H](NC(=O)c3ccc(C4CCN([C@H]5CC[C@@H](n6ccc7c8c(C9CCC(=O)NC9=O)noc8ccc76)CC5)CC4)nn3)CC2)cc1Cl (stereo partly drawn) [Compound 54] | –

More lines, now with the values behind:

Row | Compound | IC50 ([1]; Homo sapiens, VCaP, 168 h) | IC50 ([2]; Homo sapiens) | further results
15 | N#Cc1ccc(O[C@H]2CC[C@H](NC(=O)c3cnc(N4CCC5(CC4)CC(CN4CCc6c(ccc7c(C8CCC(=O)NC8=O)noc67)C4)C5)nc3)CC2)cc1Cl (stereo partly drawn) [Compound 130] | < 100 nM | < 1000 nM | –
16 | N#Cc1ccc(O[C@H]2CC[C@H](NC(=O)c3cnc(N4CC(CN5CCc6c(ccc7c(C8CCC(=O)NC8=O)noc67)C5)C4)nc3)CC2)cc1Cl (stereo partly drawn) [Compound 142] | < 1000 nM | < 1000 nM | –
17 | N#Cc1ccc(O[C@H]2CC[C@H](NC(=O)c3cnc(N4CCC(N5CC(CN6CCc7ccc8c(C9CCC(=O)NC9=O)coc8c7C6)C5)CC4)nc3)CC2)cc1Cl (stereo partly drawn) [Compound 104] | < 10 nM | – | –
18 | N#Cc1ccc(O[C@H]2CC[C@H](NC(=O)c3ccc(N4CCC(N5CC(CN6CCc7ccc8c(C9CCC(=O)NC9=O)coc8c7CC6)C5)CC4)nn3)CC2)cc1Cl (stereo partly drawn) [Compound 99] | < 100 nM | < 1000 nM | –
19 | N#Cc1ccc(O[C@H]2CC[C@H](NC(=O)c3cnc(N4CCC(CN5CCc6c(ccc7c(C8CCC(=O)NC8=O)coc67)C5)CC4)nc3)CC2)cc1Cl (stereo partly drawn) [Compound 134] | < 100 nM | < 1000 nM | –
20 | N#Cc1ccc(O[C@H]2CC[C@H](NC(=O)c3cnc(N4CCC5(CC4)CC(CN4CCc6ccc7c(C8CCC(=O)NC8=O)noc7c6C4)C5)nc3)CC2)cc1Cl (stereo partly drawn) [Compound 129] | < 100 nM | < 1000 nM | –
21 | N#Cc1ccc(O[C@H]2CC[C@H](NC(=O)c3cnc(N4CCN(CC5Cc6ccc7c(C8CCC(=O)NC8=O)noc7c6C5)CC4)nc3)CC2)cc1Cl (stereo partly drawn) [Compound 124] | – | – | IC50 [1]: < 1000 nM
22 | N#Cc1ccc(O[C@H]2CC[C@H](NC(=O)c3cnc(N4CCC(CN5CCc6ccc7c(C8CCC(=O)NC8=O)coc7c6C5)CC4)nc3)CC2)cc1Cl (stereo partly drawn) [Compound 133] | < 1000 nM | < 1000 nM | –
23 | N#Cc1ccc(O[C@H]2CC[C@H](NC(=O)c3cnc(N4CCC(CN5CCc6ccc7c(N8CCC(=O)NC8=O)coc7c6C5)CC4)nc3)CC2)cc1Cl [Compound 139] | < 1000 nM | < 1000 nM | –
24 | CN(c1ccc(C#N)c(Cl)c1)[C@H]1CC[C@H](NC(=O)c2ccc(N3CCC(CN4CCc5ccc6c(C7CCC(=O)NC7=O)noc6c5CC4)CC3)cc2)CC1 (stereo partly drawn) [Compound 59] | – | – | IC50 ([1]; Homo sapiens): < 10 nM
25 | N#Cc1ccc(O[C@H]2CC[C@H](NC(=O)c3cnc(N4CCN(CC5Cc6ccc7c(C8CCC(=O)NC8=O)noc7c6C5)CC4)nc3)CC2)cc1Cl (stereo partly drawn) [Compound 123] | < 1000 nM | < 1000 nM | –
26 | N#Cc1ccc(O[C@H]2CC[C@H](NC(=O)c3cnc(C4CCN(C5CN(CC6Cc7ccc8c(C9CCC(=O)NC9=O)coc8c7C6)C5)CC4)nc3)CC2)cc1Cl (stereo partly drawn) [Compound 112] | – | – | IC50 [1]: < 1000 nM; IC50 [2]: < 1000 nM
27 | N#Cc1ccc(O[C@H]2CC[C@H](NC(=O)c3cnc(N4CCN(CC5Cc6ccc7c(C8CCC(=O)NC8=O)coc7c6C5)CC4)nc3)CC2)cc1Cl (stereo partly drawn) [Compound 136] | < 1000 nM | < 1000 nM | –
28 | N#Cc1ccc(O[C@H]2CC[C@H](NC(=O)c3cnc(N4CCN(CC5Cc6ccc7c(C8CCC(=O)NC8=O)coc7c6C5)CC4)nc3)CC2)cc1Cl (stereo partly drawn) [Compound 137] | – | – | IC50 [1]: < 1000 nM; IC50 [2]: < 1000 nM
29 | N#Cc1ccc(O[C@H]2CC[C@H](NC(=O)c3ccc(N4CCC(CN5CCC(n6ccc7c8c(C9CCC(=O)NC9=O)noc8ccc76)CC5)CC4)nn3)CC2)cc1Cl (stereo partly drawn) [Compound 41] | < 10 nM | < 1000 nM | –
30 | CN(c1ccc(C#N)c(Cl)c1)[C@H]1CC[C@H](NC(=O)c2ccc(C3CCN(CC4Cc5ccc6c(C7CCC(=O)NC7=O)noc6c5C4)CC3)cc2)CC1 (stereo partly drawn) [Compound 68] | < 10 nM | – | –
31 | N#Cc1ccc(O[C@H]2CC[C@H](NC(=O)c3cnc(N4CCC5(CC4)CC(CN4Cc6ccc7c(C8CCC(=O)NC8=O)noc7c6C4)C5)nc3)CC2)cc1Cl (stereo partly drawn) [Compound 128] | < 100 nM | < 1000 nM | –
32 | N#Cc1ccc(O[C@H]2CC[C@H](NC(=O)c3ccc(N4CCC(CN5CC(n6cc7c(ccc8onc(C9CCC(=O)NC9=O)c87)n6)C5)CC4)nn3)CC2)cc1Cl (stereo partly drawn) [Compound 44] | – | < 1000 nM | –
33 | N#Cc1ccc(O[C@H]2CC[C@H](NC(=O)c3cnc(N4CCC(N5CC(CN6CCc7c(ccc8c(C9CCC(=O)NC9=O)coc78)C6)C5)CC4)nc3)CC2)cc1Cl (stereo partly drawn) [Compound 105] | < 10 nM | – | –
34 | CN(c1ccc(C#N)c(Cl)c1)[C@H]1CC[C@H](NC(=O)c2cnc(N3CCC(CN4Cc5ccc6c(C7CCC(=O)NC7=O)noc6c5C4)CC3)nc2)CC1 (stereo partly drawn) [Compound 115] | < 1000 nM | – | –
35 | N#Cc1ccc(O[C@H]2CC[C@H](NC(=O)c3ccc(N4CCN(CC5Cc6cc(C7CCC(=O)NC7=O)c7ccoc7c6C5)CC4)nn3)CC2)cc1Cl (stereo partly drawn) [Compound 29] | – | < 1000 nM | –
